Measured values from patent US20160296529A1, “AMINOTRIAZOLOPYRIDINE FOR USE IN THE TREATMENT OF INFLAMMATION, AND PHARMACEUTICAL COMPOSITIONS THEREOF” (priority 2012, published 2016).
Values joined by “and” are separate entries in the source; they are usually repeats but may differ in a detail not shown here. Equal entries are not always repeated. Where two headings read alike, the source gives them in different places.

Columns and labels:
[1] = system: IL-6-induced STAT1 phosphorylation (JAK1-dependent pathway); assay: Human whole blood assay (hWBA), IL-6 stimulation, phospho-STAT1 on CD4+ cells; assay type: cell-based
Method: A flow cytometry analysis was performed to establish JAK1 over JAK2 compound selectivity ex vivo using human whole blood. Therefore, blood is taken from human volunteers who gave informed consent. Blood is then equilibrated for 30 min at 37° C. under gentle rocking, then aliquoted in Eppendorf tubes. Compound is added at different concentrations and incubated at 37° C. for 30 min under gentle rocking and subsequently stimulated for 20 min at 37° C. under gentle rocking with interleukin 6 (IL-6) for JAK1-dependent pathway stimulation or GM-CSF for JAK2-dependent pathway stimulation. Phospho-STAT1 and phospho-STAT5 are then evaluated using FACS analysis. […]
Cells were then washed once with 1×PBS and analyzed on a FACSCanto II flow cytometer (BD Biosciences).
50,000 total events are counted and Phospho-STAT1 positive cells are measured after gating on CD4^+ cells, in the lymphocyte gate. Data are analyzed using the FACSDiva software and the percentage of inhibition of IL-6 stimulation calculated from the percentage of positive cells for phospho-STAT1 on CD4+ cells.
A flow cytometry analysis was performed to establish JAK1 over JAK2 compound selectivity ex vivo using human whole blood. […] Phospho-STAT1 (for IL-6- and IFNα-stimulated cells) and phospho-STAT5 (for IL-2- and GM-CSF-stimulated cells) levels are then evaluated using FACS analysis. […]

[2] = target: T1, Recombinant human JAK3 catalytic domain (Homo sapiens, UniProt P52333); assay: JAK3 inhibition assay; assay type: biochemical
T1 construct: amino acids 795-1124; catalog number 08-046; purchased Carna Biosciences 08-046
Method: Recombinant human JAK3 catalytic domain (amino acids 795-1124; catalog number 08-046) was purchased from Carna Biosciences. 0.5 ng JAK3 protein was incubated with 2.5 μg polyGT substrate (Sigma catalog number P0275) in kinase reaction buffer (25 mM Tris pH 7.5, 0.5 mM EGTA, 10 mM MgCl2, 2.5 mM DTT, 0.5 mM Na3VO4, 5 mM b-glycerophosphate, 0.01% Triton X-100, 1 μM non-radioactive ATP, 0.25 μCi ^33P-gamma-ATP (Perkin Elmer, catalog number NEG602K001MC) final concentrations) with or without 5 μL containing test compound or vehicle (DMSO, 1% final concentration), in a total volume of 25 μL, in a polypropylene 96-well plate (Greiner, V-bottom). After 45 min at 30° C., reactions were stopped by adding 25 μL/well of 150 mM phosphoric acid. […] 40 μL/well of Microscint-20 was added, the top of the plates was sealed and readout was performed using the Topcount (Perkin Elmer). Kinase activity was calculated by subtracting counts per min (cpm) obtained in the presence of a positive control inhibitor (10 μM staurosporine) from cpm obtained in the presence of vehicle. The ability of a test compound to inhibit this activity was determined as:
Percentage inhibition=((cpm determined for sample with test compound present−cpm determined for sample with positive control inhibitor) divided by (cpm determined in the presence of vehicle−cpm determined for sample with positive control inhibitor))*100. […]

T1 sequence (P52333 795-1124): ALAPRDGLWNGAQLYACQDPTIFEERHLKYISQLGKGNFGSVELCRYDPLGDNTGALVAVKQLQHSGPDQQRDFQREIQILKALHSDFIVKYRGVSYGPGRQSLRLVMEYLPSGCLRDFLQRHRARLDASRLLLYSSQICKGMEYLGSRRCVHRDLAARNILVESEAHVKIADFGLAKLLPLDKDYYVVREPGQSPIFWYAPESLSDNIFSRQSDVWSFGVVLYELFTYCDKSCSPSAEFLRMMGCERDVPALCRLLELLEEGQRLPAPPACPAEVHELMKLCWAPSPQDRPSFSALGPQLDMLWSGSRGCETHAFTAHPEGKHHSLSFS

IC50 ([1]; human whole blood, 6 different donors): 11.9 µM
IC50 ([2]; average, read-out: IC50 (average)): > 3.61 µM
Compound: Nc1nc2cccc(-c3ccc(CN4CCS(=O)(=O)CC4)cc3)n2n1 [Formula I, 5-[4-(1,1-Dioxothiomorpholin-4-ylmethyl)-phenyl]-[1,2,4]triazolo[1,5-a]pyridin-2-ylamine]
selectivity for JAK1 over JAK2 ([1]; in vitro whole blood selectivity assay (IL-6 vs GM-CSF)): over 10 fold
IC50 ([2]; individual determinations, read-out: IC50): 2.5 µM and 3.2 µM and 3.37 µM and > 4 µM (5×) and > 3.33 µM (2×) and 3.94 µM
